From patent US11739099B2 (CURIA IP HOLDINGS, LLC, priority 2014, dated 2023)
Values belong to the compound of their own block, whether it stands above or below them.

How the values were obtained:
[1] = literature studies (Cellai et al. 1983; Viscomi et al. 2008); cited from earlier work
[2] = Solid-state change of Rifaximin α form on wet granulation with purified water; assay type: physicochemical; conditions: purified water as binding agent
[3] = Solid-state stability of the α/β ratio after dry granulation and tableting, DRX (powder); assay type: physicochemical; conditions: tablets before coating, ground in a mortar

Compound: Rifaximin [δ]
Absorption from the intestine [1]: could be significantly absorbed

Amount of Rifaximin β form afforded by wet granulation [2]: < 50%
Compound: CO[C@H]1/C=C/O[C@@]2(C)Oc3c(C)c(O)c4c(O)c(c5c(nc6cc(C)ccn65)c4c3C2=O)NC(=O)/C(C)=C\C=C\[C@H](C)[C@H](O)[C@@H](C)[C@@H](O)[C@@H](C)[C@H](OC(C)=O)[C@@H]1C [Rifaximin α form, Rifaximin]

Relative ratio between the α/β polymorphic form after dry granulation and tableting [3]: stable
Compound: Rifaximin [Rifaximin α/β polymorphic mixture 88/12]
